# Measurements taken from US20250009766A1, “CA[…] TREATMENT OF SEIZURES AND EPILEPSY” (The Regents of the University of California, priority 2021, published 2025).
# “Also recorded” adds a separate entry of the source.
# Experiments:
# Assay type in all cases: in vivo
# male CF1 mice [1] = assay: Mouse maximal electroshock (MES) test, male CF1 mice; details: for Percentage protection from Tonic Hind limb Extension: Male CF1 mice
# Experimental: (§1) Animals. Male NIH Swiss or CF1 mice (Charles-Rivers, 22-34g) were used in the present study. In most of the experiments, male CF1 mice were used. In the experiment exploring the strain difference between CBD and CBG efficacy in the MES test, these compounds were also tested in male NIH Swiss mice. All experiments involving animals complied with the ARRIVE guidelines of the National Centre for the Replacement, Refinement, and Reduction of Animals in Research and were performed in accordance with the National Institutes of Health Guide for the Care and Use of Laboratory Animals (NIH publication No. 8023, revised in 1978) under protocols approved by the University of California, Davis, Institutional Animal Care and Use Committee.
# (§2) All the cannabinoids were prepared in ethanol: Cremophor: saline in the ratio of 2:1:17. These were administered Intraperitoneally (IP) in a dose volume of 10 ml/kg.
# (§3) Mouse maximal electroshock test. Samples of CBD, both from decarboxylation of cannabidiolic acid (CBDA) and a commercial source, were tested in parallel as a comparator. Samples of CBD and CBG were prepared by decarboxylating their respective active precursors CBDA and cannabigerolic acid (CBGA; 95+% pure) by heating at 102° C. (215° F.) for 60 min. The precursor compounds were isolated from hemp. For comparison, the antiseizure activity of pure, commercial, hemp-derived CBD and chemically synthesized CBG in crystalline form was also determined in the MES test. Also investigated was whether CBDA and CBGA have antiseizure potential at the highest dose tested (150 mg/kg) in this model. Male CF1 mice were used in the current study. Sixty min after IP injection of the cannabinoids, the animals were subjected to a 0.2-s, 60-Hz, 50-mA electrical stimulus delivered with corneal electrodes (5 mm diameter stainless steel balls) wetted with 0.9% saline. Animals failing to show THLE were scored as protected. In the time-response curve experiment, CBG was administered at different times before the MES test. In most of the experiments, male CF1 mice were used. In the experiment exploring the strain difference between CBD and CBG efficacy in the MES test, these compounds were additionally tested in male NIH Swiss mice.
# male CF1 mice [2] = assay: Mouse pentylenetetrazol (PTZ) test
# Experimental: as §1, §2
# Mouse pentylenetetrazol (PTZ) test. Sixty min after IP injection of either cannabidiol (CBD) or cannabigerol (CBG) in male CF1 mice, the animals were challenged with 80 or 100 mg/kg PTZ delivered via intraperitoneal (IP) route of administration. The onset of myoclonic jerks, generalized clonus, tonus/tonic extension, and mortality was observed. The percentage of animals was further calculated that underwent these phases caused by PTZ. Failure to observe such phases or delayed onset is considered as protection.
# male NIH Swiss mice = assay: Mouse maximal electroshock (MES) test, male NIH Swiss mice (strain difference); details: for Percentage protection from Tonic Hind limb Extension: Male NIH Swiss mice; for effect in MES test: male NIH Swiss mice
# Experimental: as §1, §2, §3
# [3] = 50 mg/kg IP, 60 min before MES, male CF1 mice
# [4] = 100 mg/kg IP, 60 min before MES, male CF1 mice
# [5] = 150 mg/kg IP, 60 min before MES, male CF1 mice
# [6] = 200 mg/kg IP, 60 min before MES, male CF1 mice
# [7] = male CF1 mice, IP, 60 min before MES
# [8] = protection from THLE, male CF1 mice, IP, 60 min before MES
# [9] = PTZ 80 mg/kg IP, treatment 100 mg/kg IP 1 h before
# [10] = PTZ 80 mg/kg IP, treatment 150 mg/kg IP 1 h before
# [11] = PTZ 100 mg/kg IP, treatment 150 mg/kg IP 1 h before
# [12] = high dose PTZ test (100 mg/kg), treatment 150 mg/kg IP
# [13] = dose 100, 1 h before MES (0.2-s, 60-Hz, 50-mA)
# [14] = dose 150, 1 h before MES (0.2-s, 60-Hz, 50-mA)
smiles,measurement,setting,value
"CCCCCc1cc(O)c2c(c1)OC(C)(CCC=C(C)C)C=C2 (stereo not drawn) [CBC oil, cannabichromene]",Percentage Protection,male CF1 mice [1]; [3],11.1%
same,Percentage Protection,male CF1 mice [1]; [4],12.5%
same,Percentage Protection,male CF1 mice [1]; [5],12.5%
same,Percentage Protection,male CF1 mice [1]; [6],25%
same,fraction of animals protected,"male CF1 mice [1]; 250 mg/kg IP, 60 min before MES, male CF1 mice",25%
same,potency relative to CBD and CBG in MES test,male CF1 mice [1]; [7],less potent than CBD and CBG
"C=C(C)[C@@H]1CCC(C)=C[C@H]1c1c(O)cc(CCCCC)cc1O [CBD obtained from CBDA isolates, cannabidiol]",doses at which animals were protected from THLE,male CF1 mice [1]; [7],25 to 150 mg/kg
same,"ED50 (mg/kg, IP)",male CF1 mice [1]; [8],62.7 ± 5.6 mg/kg
"C=C(C)[C@@H]1CCC(C)=C[C@H]1c1c(O)cc(CCCCC)cc1O [CBD, cannabidiol]",Death time (s),male CF1 mice [2]; [9],None
same,Onset of generalized clonus,male CF1 mice [2]; [9],333.9 ± 174.3 s
same,Onset of jerks,male CF1 mice [2]; [9],138.1 ± 61.9 s
same,Onset of tonus (s),male CF1 mice [2]; [9],None
same,Percentage animals having generalized clonus,male CF1 mice [2]; [9],87.5%
same,Percentage animals having tonus,male CF1 mice [2]; [9],None
same,Percentage mortality,male CF1 mice [2]; [9],0%
same,Percentage of animals having myoclonic jerks,male CF1 mice [2]; [9],100%
same,Death time (s),male CF1 mice [2]; [10],None
same,Onset of generalized clonus,male CF1 mice [2]; [10],612.5 ± 515.5 s
same,Onset of jerks,male CF1 mice [2]; [10],95.6 ± 13.3 s
same,Onset of tonus (s),male CF1 mice [2]; [10],None
same,Percentage animals having generalized clonus,male CF1 mice [2]; [10],25%
same,Percentage animals having tonus,male CF1 mice [2]; [10],None
same,Percentage mortality,male CF1 mice [2]; [10],0%
same,Percentage of animals having myoclonic jerks,male CF1 mice [2]; [10],100%
same,Death time (s),male CF1 mice [2]; [11],None
same,Onset of generalized clonus,male CF1 mice [2]; [11],329.3 ± 152.3 s
same,Onset of jerks,male CF1 mice [2]; [11],63.6 ± 4.8 s
same,Onset of tonus,male CF1 mice [2]; [11],1362.5 ± 888.5 s
same,Percentage animals having generalized clonus,male CF1 mice [2]; [11],100%
same,Percentage animals having tonus,male CF1 mice [2]; [11],25%
same,Percentage mortality,male CF1 mice [2]; [11],0%
same,Percentage of animals having myoclonic jerks,male CF1 mice [2]; [11],100%
same,effect on generalized clonus,male CF1 mice [2]; high dose PTZ test (100 mg/kg),no difference
same,latency to onset of myoclonic jerks,male CF1 mice [2]; [12],increased the latency to onset of myoclonic jerks
same,protection from tonus phase and mortality,male CF1 mice [2]; [12],protected animals from undergoing tonus phase and mortality
same,protection from generalized clonus,"male CF1 mice [2]; low dose PTZ test (80 mg/kg, IP), treatment 150 mg/kg IP",effective in protecting animals from generalized clonus
same,Percentage protection from Tonic Hind limb Extension,male NIH Swiss mice; [13],12.5%
same,Percentage protection from Tonic Hind limb Extension,male NIH Swiss mice; [14],12.5%
same,effect in MES test,male NIH Swiss mice,not protective
same,Percentage protection from Tonic Hind limb Extension,male CF1 mice [1]; [13],100%
same,Percentage protection from Tonic Hind limb Extension,male CF1 mice [1]; [14],100%
same,effect in MES test,male CF1 mice [1]; male CF1 mice,protected animals from Tonic Hindlimb Extension (THLE); also recorded: effective
"CCCCCc1cc(O)c(C/C=C(\C)CCC=C(C)C)c(O)c1 [CBG obtained from CBGA, cannabigerol]",doses at which animals were protected from THLE,male CF1 mice [1]; [7],65 to 200 mg/kg
same,ED50,male CF1 mice [1]; [8],99 ± 7.01 mg/kg
"CCCCCc1cc(O)c(C/C=C(\C)CCC=C(C)C)c(O)c1 [CBG, cannabigerol]",Death time (s),male CF1 mice [2]; [9],None
same,Onset of generalized clonus,male CF1 mice [2]; [9],199.1 ± 90.6 s
same,Onset of jerks,male CF1 mice [2]; [9],101.1 ± 50.7 s
same,Onset of tonus (s),male CF1 mice [2]; [9],None
same,Percentage animals having generalized clonus,male CF1 mice [2]; [9],87.5%
same,Percentage animals having tonus,male CF1 mice [2]; [9],None
same,Percentage mortality,male CF1 mice [2]; [9],0%
same,Percentage of animals having myoclonic jerks,male CF1 mice [2]; [9],87.5%
same,Death time (s),male CF1 mice [2]; [10],None
same,Onset of generalized clonus,male CF1 mice [2]; [10],117.8 ± 46.8 s
same,Onset of jerks,male CF1 mice [2]; [10],93 ± 26.6 s
same,Onset of tonus,male CF1 mice [2]; [10],852.5 ± 170.5 s
same,Percentage animals having generalized clonus,male CF1 mice [2]; [10],62.5%
same,Percentage animals having tonus,male CF1 mice [2]; [10],25%
same,Percentage mortality,male CF1 mice [2]; [10],0%
same,Percentage of animals having myoclonic jerks,male CF1 mice [2]; [10],100%
same,Death time,male CF1 mice [2]; [11],1082.6 ± 265.5 s
same,Onset of generalized clonus,male CF1 mice [2]; [11],200.8 ± 105.9 s
same,Onset of jerks,male CF1 mice [2]; [11],50.1 ± 3.3 s
same,Onset of tonus,male CF1 mice [2]; [11],1351.3 ± 410.7 s
same,Percentage animals having generalized clonus,male CF1 mice [2]; [11],100%
same,Percentage animals having tonus,male CF1 mice [2]; [11],100%
same,Percentage mortality,male CF1 mice [2]; [11],62.5%
same,Percentage of animals having myoclonic jerks,male CF1 mice [2]; [11],100%
same,overall effect in PTZ seizure test,"male CF1 mice [2]; PTZ IP, male CF1 mice",had no effect
same,protection from mortality,male CF1 mice [2]; high dose PTZ,protected some animals from mortality
same,Percentage protection from Tonic Hind limb Extension,male NIH Swiss mice; [13],12.5%
same,Percentage protection from Tonic Hind limb Extension,male NIH Swiss mice; [14],12.5%
same,effect in MES test,male NIH Swiss mice,not protective
same,Percentage protection from Tonic Hind limb Extension,male CF1 mice [1]; [13],62.5%
same,Percentage protection from Tonic Hind limb Extension,male CF1 mice [1]; [14],75%
same,effect in MES test,male CF1 mice [1]; male CF1 mice,protected animals from Tonic Hindlimb Extension (THLE); also recorded: effective
same,time of maximum response (protection from THLE) after administration,"male CF1 mice [1]; single IP injection of 100 mg/kg, male CF1 mice, tested 15-240 min",60 to 120 min
"C=C(C)[C@@H]1CCC(C)=C[C@H]1c1c(O)cc(CCCCC)c(C(=O)O)c1O [Cannabidiolic acid (CBDA), cannabidiolic acid]",Percentage Protection,male CF1 mice [1]; [5],0%
same,antiseizure activity,"male CF1 mice [1]; highest dose tested (150 mg/kg), male CF1 mice",no antiseizure activity
"CCCCCc1cc(O)c(C/C=C(\C)CCC=C(C)C)c(O)c1C(=O)O [Cannabigerolic acid (CBGA), cannabigerolic acid]",Percentage Protection,male CF1 mice [1]; [5],25%
"C=C(C)[C@@H]1CCC(C)=C[C@H]1c1c(O)cc(CCCCC)cc1O [Crystalline hemp derived CBD, cannabidiol]",Percentage Protection,male CF1 mice [1]; [3],0%
same,Percentage Protection,"male CF1 mice [1]; 65 mg/kg IP, 60 min before MES, male CF1 mice",37.5%
same,Percentage Protection,"male CF1 mice [1]; 75 mg/kg IP, 60 min before MES, male CF1 mice",37.5%
same,Percentage Protection,"male CF1 mice [1]; 85 mg/kg IP, 60 min before MES, male CF1 mice",50%
same,Percentage Protection,male CF1 mice [1]; [4],75%
same,Percentage Protection,male CF1 mice [1]; [5],75%
same,"ED50 (mg/kg, IP)","male CF1 mice [1]; protection from THLE, male CF1 mice, IP, 60 min before MES, listed as commercial CBD",83.7 ± 5.7 mg/kg
CCCCCc1cc(O)c(C/C=C(\C)CCC=C(C)C)c(O)c1 [cannabigerol],Percentage Protection,male CF1 mice [1]; [4],62.5%
same,Percentage Protection,male CF1 mice [1]; [5],75%
same,Percentage Protection,male CF1 mice [1]; [6],62.5%
